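Dose response: 5 concentrations. Exposure: 48 h. Format: 96-well plates. Endpoint: linear interpolation; highest concentration if not reached. GI50 = concentration required for 50% inhibition of growth.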 Calls of active or inactive are those of the source. Rule as the data show it: active = GI50 up to about 1.1 µM and inactive = higher.
Key:
Experiment in all cases: NCI anticancer screen, dose series, 48 h
[1] = system: A549
[2] = system: CCRF-CEM
[3] = system: HCC 2998
[4] = system: HOP-62
[5] = system: Hs-578T
[6] = system: MDA-N
[7] = system: MOLT-4
[8] = system: Malme-3M
[9] = system: NCI-H23
[10] = system: NCI-H460
[11] = system: NCI-H522
[12] = system: OVCAR-3
[13] = system: OVCAR-8
[14] = system: SF-295
[15] = system: SF-539
[16] = system: SK-MEL-5
[17] = system: SK-OV-3
[18] = system: SR
[19] = system: U-251
[20] = system: UACC-62

Measured: GI50

COc1ccccc1NC(=S)N/N=C1\C(=O)Nc2ccccc21
inactive: [1] > 100 µM | [2] > 100 µM | [3] > 100 µM | [4] > 100 µM | [5] > 100 µM | [6] > 100 µM | [7] > 100 µM | [8] > 100 µM | [9] > 100 µM | [10] > 100 µM | [11] > 100 µM | [12] 57.7 µM | [13] > 100 µM | [14] > 100 µM | [15] > 100 µM | [16] 73.5 µM | [17] > 100 µM | [18] > 100 µM | [19] > 100 µM | [20] > 100 µM

CC(=O)OCC1OC(n2cnc3nc(Br)[nH]c(=O)c32)C(OC(C)=O)C1OC(C)=O (stereo not given)
inactive: [1] > 100 µM | [2] > 100 µM | [3] > 100 µM | [4] > 100 µM | [5] > 100 µM | [6] > 100 µM | [7] > 100 µM | [8] > 100 µM | [9] > 100 µM | [10] > 100 µM | [11] > 100 µM | [12] > 100 µM | [13] > 100 µM | [14] > 100 µM | [15] > 100 µM | [16] > 100 µM | [17] > 100 µM | [18] > 100 µM | [19] > 100 µM | [20] > 100 µM

COC(=O)C(N)CCCC(N)C(=O)NC(C)C(=O)NC(CCC(=O)NCCNCCNc1c2ccccc2nc2cccc([N+](=O)[O-])c12)C(N)=O (stereo not given)
inactive: [1] 4.67 µM | [2] 7.59 µM | [3] 8.34 µM | [4] 19 µM | [5] 17.9 µM | [6] 14.7 µM | [7] 3.5 µM | [8] 11.3 µM | [9] 3.03 µM | [10] 3.17 µM | [11] 1.65 µM | [12] 12.3 µM | [13] 8.79 µM | [14] 27.8 µM | [15] 5.19 µM | [16] 6.92 µM | [17] 28 µM | [18] 19.7 µM | [19] 5.48 µM | [20] 8.09 µM

From ChEMBL document CHEMBL1201862, “PubChem BioAssay data set” (2004)
